According to US20250127698A1, “Hair Perming Compositions With Amine Derivatives” (ELC Management LLC, priority 2023, published 2025):

What was measured:
[1] = pH of hair perming composition; assay type: physicochemical; details: for pH: hair perming composition: base of Table 2 (7.50% thioglycolic acid) plus alkalizer, same molar percentage of alkalizer
Description: For testing, we prepared the hair perming compositions shown by Tables 2 and 3, below. […] All compositions contain the same molar percentage of alkalizer, the water content being adjusted accordingly.

[2] = Curl efficiency after hair curling treatment; parameters: species or system human; details: Type 1 Caucasian hair; for Curl Efficiency (%) After Treatment, 1 Wash and Dry: 1 wash with 5% SDS solution; for Curl Efficiency (%) After Treatment, 8 Washes and Dry: equivalent of 8 washes with 5% SDS solution
Description: (§1) The ability of each test composition to curl hair was established by measuring “curl efficiency”. Curl efficiency is a measure of curl tightness following a hair curling treatment. The higher the efficiency, the tighter the curl. We used a well-known method of measuring curl efficiency, wherein a portion of untreated straight hair of known length, Lu, is secured on an arrangement of pegs to form a sine wave pattern of five cycles, crest-to-crest. Because the pegs are fixed, the ideal length, Li, of the portion of hair when arranged into the five-cycle wave pattern, is known. Starting with a straight swatch of hair of length Lu, the ideal outcome would be a curled swatch of hair with a length of Li. Curl efficiency is a measure of how closely the ideal is attained.
(§2) Two types of hair samples were tested for curling; mixed sourced virgin Type 1Caucasian hair, and single sourced virgin Type 1 hair. For straightening, mixed sourced virgin Type 2C (very wavy) Caucasian hair was tested. Hair straightening test samples were prepared by collecting hair fibers into tresses, and clamping each tress at both ends. For those test samples that were to undergo a straightening treatment, the length, Lu, was measured between two previously determined points.
(§3) Each hair tress was wetted (reverse osmosis water). For curling, each hair tress was wound along a peg board to form a sine wave pattern of five cycles, as described above. For straightening, each hair tress was held on a board in a straight conformation, tension was applied, and the ends of the tress were secured. All test samples (curling or straightening) were allowed to dry before proceeding. Each board with a hair tress test sample was dipped for 10 seconds into a beaker with one of the hair perming compositions. After removing a board from solution, it was immediately placed in an oven for 20 minutes at 37° C. (normal body temperature). The test sample was removed from the oven, and rinsed for five minutes with 37° C. water, being careful not to allow the running water to fall directly on the hair tresses. After blotting with a paper towel, test samples were allowed to rest for five minutes at room temperature, for air oxidation to occur. The hair straightening test samples were removed from the board, blow dried and flat ironed at 200° C., which is commonly done in salon practice. At this point, the ideal length, Li, was measured between the two previously determined point mentioned above. Thereafter, each sample was rebound to the board.
(§4) Each bound hair tress was submerged for ten seconds in a 2% solution of H2O2 to neutralize the reducing agent and promote S-S bond formation, so that the hair tress would retain a desired shape (sine wave pattern or straight) when removed from the board. Each hair tress rested at room temperature for about five minutes, then was rinsed under 37° C. running water for five minutes, and subsequently blotted with a paper towel. Each test sample hair tress was removed from the board, laid on a flat surface, and allowed to dry. The fully permed dry tresses were washed in 5% SDS (sodium dodecyl sulfate) solution (which simulates salon practice) and allowed to dry overnight.
(§5) For the curling test samples, the length, Lt, of five waves, crest to crest was measured. For the straightening test samples, the final length, Lt, was measured between the two previously determined points. At this point, differential scanning calorimetry (DSC) measurements were made on a portion of each hair tress test sample. Also, for longevity performance, each tress was subjected to the equivalent of eight hand washings in 5% SDS solution using the GyroWash color fastness to laundering tester, and allowed to dry, before another length measurement, Lt, was made.
(§6) Curl efficiencies were computed using Equation 1.
(§7) [formula] • Lu=length of the untreated hair tress • Lt=crest-to-crest length of the five-wave portion of the treated hair tress • Li=ideal length of curled hair […]

[3] = Curl efficiency after hair curling treatment; parameters: species or system human; % Change In Curl Efficiency From 1 to 8 Washes: concentration or dose not given beside the values; details: Type 1 Chinese hair; for Curl Efficiency (%) After Treatment, 1 Wash and Dry: 1 wash with 5% SDS solution; for Curl Efficiency (%) After Treatment, 8 Washes and Dry: equivalent of 8 washes with 5% SDS solution
Description: as §1, §2, §3, §4, §5, §6, §7

[4] = Straightening efficiency after hair straightening treatment; parameters: species or system human; details: Type 2C Caucasian hair; for Straightening Efficiency (%) After Treatment, 1 Wash and Dry: 1 wash with 5% SDS solution
Description: The ability of each test composition to straighten curly hair was established by measuring “straightening efficiency”. Straightening efficiency represents the degree to which curly hair is made straight by a hair straightening treatment. We start with a curly, untreated hair tress of length Lu. The tress has an ideal straight length of Li, which is the length of the untreated tress when flat ironed to its maximum, straight length. After treatment the tress has a length of Lt. Straightening efficiency is the gain in length as a percentage of the maximum possible gain in length. […] A straightening efficiency of 100% means that the treated tress retained the maximum possible length.
as §2, §3, §4, §5
Straightening efficiencies were computed using Equation 2.
[formula] • Lu=length of the untreated hair tress • Lt=length of treated hair tress • Li=ideal length of straightened hair
(Li−Lu) represents the maximum possible increase in length as a result of treatment. […]

[5] = DSC keratin denaturation temperature change after curling treatment; parameters: species or system human; details: for ΔT (TUntreated−TAlkalizer, keratin denaturation temperature): Type 1 Chinese hair after curling treatment, larger ΔT indicates more damage; for damage to hair (in words): hair curling treatment, Type 1 Chinese hair
Description: (§8) This damage occurs at the level of keratin proteins.
(§9) Untreated hair was used as a control.
(§10) A larger ΔT indicates more damage.

[6] = DSC keratin denaturation temperature change after straightening treatment; parameters: species or system human; details: for ΔT (TUntreated−TAlkalizer, keratin denaturation temperature): Type 3 Caucasian hair after straightening, larger ΔT indicates more damage; for damage to hair (in words): hair straightening treatment, Type 3 Caucasian hair
Description: as §8, §9, §10

[7] = DSC keratin denaturation temperature change after curling treatment; details: for ΔT (TUntreated−TAlkalizer, keratin denaturation temperature): Type 1 Caucasian hair after curling treatment, larger ΔT indicates more damage; for damage to hair (in words): hair curling treatment, Type 1 Caucasian hair
Description: It is known that the denaturation of keratin in hair can be detected by differential scanning calorimetry (DSC). DSC is a thermal analysis technique used to measure phase transition temperatures and heat of transformation (enthalpy) for endothermic and exothermic reactions.
For all of the test samples discussed above, DSC measurements were performed using the Discovery DSC 2500 (from TA Instruments. New Castle, DE). The experiments were carried out over a temperature range of 40° C. to 200° C., with a scan rate of 5° C./min under nitrogen protection. DSC samples were prepared by cutting tress samples into pieces (0.1 to 1.0 mm in size) and weighing. The hair samples were mixed with deionized water, and then sealed in high volume pans for at least 6 hours before measuring. The phase transition temperature (keratin denaturation temperature) of each hair sample was analyzed using TRIOS software (Discovery DSC 2500). Untreated hair was used as a control.
Each hair sample was analyzed at least twice, and the average temperature was obtained for data analysis. This was subtracted from the denaturation temperature of the control sample (ΔT=TUntreated−TAlkalizer). A larger ΔT indicates more damage.

| pH of alkalizer composition ([1]; Table 7) | pH of alkalizer composition ([1]; Table 8) | pH of alkalizer composition ([1]; Table 9) | pH [1] | SMILES | % Change In Curl Efficiency From 1 to 8 Washes [2] | Curl Efficiency (%) After Treatment, 1 Wash and Dry [2] | Curl Efficiency (%) After Treatment, 8 Washes and Dry [2] | % Change In Curl Efficiency From 1 to 8 Washes [3] | Curl Efficiency (%) After Treatment, 1 Wash and Dry [3] | Curl Efficiency (%) After Treatment, 8 Washes and Dry [3] | Straightening Efficiency (%) After Treatment, 1 Wash and Dry [4] | ΔT (TUntreated−TAlkalizer, keratin denaturation temperature) [5] | damage to hair (in words) [5] | ΔT (TUntreated−TAlkalizer, keratin denaturation temperature) [6] | damage to hair (in words) [6] | ΔT (TUntreated−TAlkalizer, keratin denaturation temperature) [7] | damage to hair (in words) [7] | also measured |
| --- | --- | --- | --- | --- | --- | --- | --- | --- | --- | --- | --- | --- | --- | --- | --- | --- | --- | --- |
| 8.68 | 8.68 | 8.68 | 8.68 | NC(CO)CO [Serinol, 2-Amino-1,3-propanediol] | −8.15% | 45.79% | 42.06% | −14.82% | 50.47% | 42.99% | 88.24% | 0.62 C. ° | less damage than ammonium hydroxide | 0.50 °C | less damage than ammonium hydroxide | 1.76 °C | less damage than ammonium hydroxide | – |
| 10.56 | 10.56 | 10.56 | 10.56 | [Na+].[OH-] [NaOH, reference compound] | −17.64% | 47.66% | 39.25% | −19.92% | 54.86% | 43.93% | 65.71% | 5.60 C. ° | – | 4.60 °C | – | 6.34 °C | – | – |
| 8.36 | 8.36 | 8.36 | 8.36 | NC(CO)(CO)CO [Tris, Tromethamine] | – | – | – | – | – | – | – | −0.77 C. ° | less damage than ammonium hydroxide | 0.07 °C | less damage than ammonium hydroxide | 1.11 °C | less damage than ammonium hydroxide | straightening (in words) [4]: performed better than ammonium hydroxide and MEA, but not as well as AMP |
| 10.18 | 10.18 | 10.18 | 10.18 | CN(C)C(C)(C)CO [DMAMP, 2-Dimethylamino-2-methyl-1-propanol] | −20.91% | 44.86% | 35.48% | −17.06% | 58.60% | 48.60% | 93.75% | 5.78 C. ° | caused the most damage | 1.43 °C | comparatively little damage | 6.06 °C | almost as much damage as NaOH | performance in curling, curl retention and degree of damage (FIG. 1, in words) [2]: did not perform as well as ammonium hydroxide, AMP or MEA; performance in curling, curl retention and degree of damage (FIG. 2, in words) [3]: did not perform as well as ammonium hydroxide, AMP or MEA; performance in straightening and degree of damage versus ammonium hydroxide, AMP and MEA (FIG. 3, in words) [4]: did perform well |
| 9.09 | 9.09 | 8.98 | 9.09 | CCC(N)(CO)CO [AEPD, 2-Amino-2-ethyl-1,3-propanediol] | −6.40% | 43.93% | 41.12% | −15.09% | 53.93% | 45.79% | 94.70% | 1.31 C. ° | – | 1.13 °C | – | 2.36 °C | – | – |

| SMILES | pH of alkalizer composition ([1]; Table 7) | pH of alkalizer composition ([1]; Table 8) | pH of alkalizer composition ([1]; Table 9) | pH [1] | % Change In Curl Efficiency From 1 to 8 Washes [2] | Curl Efficiency (%) After Treatment, 1 Wash and Dry [2] | Curl Efficiency (%) After Treatment, 8 Washes and Dry [2] | % Change In Curl Efficiency From 1 to 8 Washes [3] | Curl Efficiency (%) After Treatment, 1 Wash and Dry [3] | Curl Efficiency (%) After Treatment, 8 Washes and Dry [3] | Straightening Efficiency (%) After Treatment, 1 Wash and Dry [4] | ΔT (TUntreated−TAlkalizer, keratin denaturation temperature) [5] | damage to hair (in words) [5] | ΔT (TUntreated−TAlkalizer, keratin denaturation temperature) [6] | damage to hair (in words) [6] | ΔT (TUntreated−TAlkalizer, keratin denaturation temperature) [7] | damage to hair (in words) [7] | also measured |
| --- | --- | --- | --- | --- | --- | --- | --- | --- | --- | --- | --- | --- | --- | --- | --- | --- | --- | --- |
| N.O [Ammonium hydroxide, reference compound] | 9.14 | 9.14 | 9.14 | 9.14 | – | – | – | – | – | – | – | 0.80 C. ° | – | – | – | – | – | – |
| NCCO [MEA, Monoethanolamine, reference compound] | 9.40 | 9.40 | 9.40 | 9.40 | −7.41% | 50.47% | 46.73% | −13.43% | 64.77% | 56.07% | 65.38% | – | – | – | – | – | – | – |
| CC(N)(CO)CO [AMPD, 2-Amino-2-methyl-1,3-propanediol] | 9.09 | 9.04 | 9.04 | 9.04 | – | – | – | – | – | – | – | 0.68 C. ° | less damage than ammonium hydroxide | 0.32 °C | – | 1.66 °C | – | straightening (in words) [4]: performed better than ammonium hydroxide and MEA, but not as well as AMP |
